Data taken from PubChem BioAssay (NCI).
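Dose response: 5 concentrations. Exposure: 48 h. Format: 96-well plates. Endpoint: linear interpolation; highest concentration if not reached. The concentration for full growth arrest is given as TGI.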

Legend:
Assay in all cases: DTP human tumour cell line panel, 48 h
[1] = system: 786-0 renal
[2] = system: A498 renal
[3] = system: A549 NSCLC
[4] = system: ACHN renal
[5] = system: BT-549 breast
[6] = system: CAKI-1 renal
[7] = system: CCRF-CEM leukemia
[8] = system: COLO 205 colon
[9] = system: EKVX NSCLC
[10] = system: HCT-116 colon
[11] = system: HCT-15 colon
[12] = system: HL-60(TB) leukemia
[13] = system: HOP-62 NSCLC
[14] = system: HOP-92 NSCLC
[15] = system: HS 578T breast
[16] = system: HT29 colon
[17] = system: IGROV1 ovarian
[18] = system: K-562 leukemia
[19] = system: KM12 colon
[20] = system: LOX IMVI melanoma
[21] = system: M14 melanoma
[22] = system: MALME-3M melanoma
[23] = system: MCF7 breast
[24] = system: MDA-MB-231 breast
[25] = system: MDA-MB-435
[26] = system: MDA-N
[27] = system: MOLT-4 leukemia
[28] = system: NCI-H226 lung
[29] = system: NCI-H23 lung
[30] = system: NCI-H460 lung
[31] = system: NCI-H522 lung
[32] = system: NCI/ADR-RES ovarian
[33] = system: OVCAR-3 ovarian
[34] = system: OVCAR-4 ovarian
[35] = system: OVCAR-5 ovarian
[36] = system: OVCAR-8 ovarian
[37] = system: PC-3 prostate
[38] = system: RPMI-8226 leukemia
[39] = system: RXF 393 renal
[40] = system: SF-268 CNS
[41] = system: SF-295 CNS
[42] = system: SF-539 CNS
[43] = system: SK-MEL-2 melanoma
[44] = system: SK-MEL-28 melanoma
[45] = system: SK-MEL-5 melanoma
[46] = system: SK-OV-3 ovarian
[47] = system: SN12C renal
[48] = system: SNB-19 CNS
[49] = system: SNB-75 CNS
[50] = system: SR leukemia
[51] = system: SW-620 colon
[52] = system: T-47D breast
[53] = system: TK-10 renal
[54] = system: U251 CNS
[55] = system: UACC-257 melanoma
[56] = system: UACC-62 melanoma
[57] = system: UO-31 renal
[58] = system: DU-145 prostate
[59] = system: HCC-2998 colon

CCOC(=S)SCC(=O)O
TGI [1]: > 100 µM | TGI [2]: > 100 µM | TGI [3]: > 100 µM | TGI [4]: > 100 µM | TGI [5]: > 100 µM | TGI [6]: > 100 µM | TGI [7]: 26.6 µM | TGI [8]: > 100 µM | TGI [9]: > 100 µM | TGI [10]: > 100 µM | TGI [11]: > 100 µM | TGI [12]: 5.74 µM | TGI [13]: > 100 µM | TGI [14]: > 100 µM | TGI [15]: > 100 µM | TGI [16]: > 100 µM | TGI [17]: > 100 µM | TGI [18]: > 100 µM | TGI [19]: > 100 µM | TGI [20]: > 100 µM | TGI [21]: > 100 µM | TGI [22]: > 100 µM | TGI [23]: > 100 µM | TGI [24]: > 100 µM | TGI [25]: > 100 µM | TGI [26]: > 100 µM | TGI [27]: > 100 µM | TGI [28]: > 100 µM | TGI [29]: > 100 µM | TGI [30]: > 100 µM | TGI [31]: > 100 µM | TGI [32]: > 100 µM | TGI [33]: > 100 µM | TGI [34]: > 100 µM | TGI [35]: > 100 µM | TGI [36]: > 100 µM | TGI [37]: > 100 µM | TGI [38]: > 100 µM | TGI [39]: > 100 µM | TGI [40]: > 100 µM | TGI [41]: > 100 µM | TGI [42]: > 100 µM | TGI [43]: > 100 µM | TGI [44]: > 100 µM | TGI [45]: > 100 µM | TGI [46]: > 100 µM | TGI [47]: > 100 µM | TGI [48]: > 100 µM | TGI [49]: > 100 µM | TGI [50]: > 100 µM | TGI [51]: > 100 µM | TGI [52]: > 100 µM | TGI [53]: > 100 µM | TGI [54]: > 100 µM | TGI [55]: > 100 µM | TGI [56]: > 100 µM | TGI [57]: > 100 µM

CCN(CC)C(=S)N/N=C/c1cc([N+](=O)[O-])ccc1O
TGI [1]: 68.9 µM | TGI [2]: 7.47 µM | TGI [3]: 54 µM | TGI [4]: 25.1 µM | TGI [5]: 33.2 µM | TGI [7]: 8.06 µM | TGI [8]: 18.1 µM | TGI [58]: > 100 µM | TGI [9]: 78.9 µM | TGI [59]: 40.3 µM | TGI [10]: 12 µM | TGI [11]: 31.6 µM | TGI [12]: 6.08 µM | TGI [13]: > 100 µM | TGI [15]: 95.7 µM | TGI [16]: > 100 µM | TGI [17]: 16.7 µM | TGI [18]: 18.1 µM | TGI [19]: > 100 µM | TGI [20]: 18.5 µM | TGI [21]: 29.1 µM | TGI [22]: 23.3 µM | TGI [23]: 7.05 µM | TGI [24]: 30.4 µM | TGI [25]: 76.9 µM | TGI [26]: > 100 µM | TGI [27]: 25.1 µM | TGI [28]: 12.6 µM | TGI [29]: 28.9 µM | TGI [30]: 24.8 µM | TGI [31]: 17.6 µM | TGI [32]: 13.9 µM | TGI [33]: 13.3 µM | TGI [34]: 19.1 µM | TGI [35]: > 100 µM | TGI [36]: 45.3 µM | TGI [37]: 78 µM | TGI [39]: 51.3 µM | TGI [40]: 57.5 µM | TGI [41]: > 100 µM | TGI [42]: 28.3 µM | TGI [43]: 65.6 µM | TGI [44]: > 100 µM | TGI [45]: 8.94 µM | TGI [46]: 16.3 µM | TGI [47]: 25.6 µM | TGI [48]: 73 µM | TGI [49]: 72.7 µM | TGI [50]: 25.6 µM | TGI [51]: > 100 µM | TGI [52]: 39.4 µM | TGI [53]: 37.1 µM | TGI [54]: > 100 µM | TGI [55]: 32.2 µM | TGI [56]: 15.4 µM | TGI [57]: > 100 µM
